{"source": "paper PMC10619479", "about": "“Multicomponent synthesis of pyrido[2,3-b]pyrazine derivatives: electrochemical DNA sensing, nonlinear optical properties and biological activity” (RSC Advances, 2023)", "key": {"Jack Bean Urease [1]": {"biological_target": "T1, Jack Bean Urease (Canavalia ensiformis, UniProt P07374)", "T1 sequence (P07374 whole entry)": "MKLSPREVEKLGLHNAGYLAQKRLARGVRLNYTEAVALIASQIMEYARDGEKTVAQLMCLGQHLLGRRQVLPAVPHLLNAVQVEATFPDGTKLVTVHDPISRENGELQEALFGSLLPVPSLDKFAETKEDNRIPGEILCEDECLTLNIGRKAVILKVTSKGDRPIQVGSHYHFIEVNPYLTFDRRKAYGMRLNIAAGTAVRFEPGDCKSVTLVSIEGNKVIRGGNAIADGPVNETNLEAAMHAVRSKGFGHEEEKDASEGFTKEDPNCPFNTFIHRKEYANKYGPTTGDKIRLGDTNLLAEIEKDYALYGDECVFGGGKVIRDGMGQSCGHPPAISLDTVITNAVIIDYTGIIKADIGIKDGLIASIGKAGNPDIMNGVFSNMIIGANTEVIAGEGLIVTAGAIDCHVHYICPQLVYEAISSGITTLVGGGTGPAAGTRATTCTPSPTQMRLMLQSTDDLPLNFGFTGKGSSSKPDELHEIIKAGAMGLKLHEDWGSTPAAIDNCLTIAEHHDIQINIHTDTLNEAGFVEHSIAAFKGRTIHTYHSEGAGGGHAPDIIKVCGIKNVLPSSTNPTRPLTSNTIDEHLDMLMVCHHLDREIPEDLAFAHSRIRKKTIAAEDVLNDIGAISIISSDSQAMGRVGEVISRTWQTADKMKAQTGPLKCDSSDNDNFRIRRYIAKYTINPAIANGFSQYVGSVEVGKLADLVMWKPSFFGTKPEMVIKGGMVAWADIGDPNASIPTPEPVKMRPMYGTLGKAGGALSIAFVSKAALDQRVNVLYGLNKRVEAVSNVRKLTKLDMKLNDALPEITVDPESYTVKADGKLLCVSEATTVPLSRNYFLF", "assay": "biochemical", "parameters": "Jack bean urease inhibition, ammonia release by indophenol method, absorbance at 625 nm", "experimental": "The enzyme responsible for catalyzing urea, known as urease, helps for the conversion of urea into carbon dioxide (CO2) through hydrolysis. To monitor the production of ammonia (NH3) and inhibit urease activity, we employed the indophenol method.[42] In the reaction mixture, consisting of Jack Bean Urease (200 μL), a buffer with a pH of 8.25 (400 μL, composed of 0.5 mM EDTA, 0.02 M K2HPO4, 0.02 M LiCl, and 120 mM urea), and test compounds (100 μL), incubation was carried out at 25 °C for approximately 30 minutes. […] In the realm of scientific investigation, thiourea functions as a benchmark inhibitor. The determination of the IC50 values entails subjecting both standard and synthesized compounds to varying concentrations under identical experimental conditions.[43,44] […] Thiourea was used as a reference point to assess the effects of substituents about the pyrido[2,3-b]pyrazine based scaffold on their urease inhibitory potential."}, "Jack Bean Urease [2]": {"biological_target": "T1, Jack Bean Urease", "assay": "indophenol urease inhibition assay (ammonia release, […] nm)", "assay_type": "biochemical", "text": "The determination of the IC50 values entails subjecting both standard and synthesized compounds"}}, "data": [{"smiles": "O=C1C2=C(Nc3nccnc3C2c2ccc([N+](=O)[O-])cc2)c2ccccc21", "note": "(centres unmarked) [compound 6]", "values": [{"measurement": "IC50", "setting": "Jack Bean Urease [1]", "result": "4.77 ± 0.92", "unit": "µM"}]}, {"smiles": "O=Cc1ccc(C2C3=C(Nc4nccnc42)c2ccccc2C3=O)cc1", "note": "(centres unmarked) [compound 4]", "values": [{"measurement": "IC50", "setting": "Jack Bean Urease [1]", "result": "6.79 ± 0.92", "unit": "µM"}]}, {"smiles": "COc1ccc(C2C3=C(Nc4nccnc42)c2ccccc2C3=O)cc1", "note": "(centres unmarked) [compound 7]", "values": [{"measurement": "IC50", "setting": "Jack Bean Urease [1]", "result": "11.9 ± 0.34", "unit": "µM"}]}, {"smiles": "O=C1C2=C(Nc3nccnc3C2c2ccc(Cl)cc2)c2ccccc21", "note": "(centres unmarked) [compound 5]", "values": [{"measurement": "IC50", "setting": "Jack Bean Urease [2]", "result": "4.12 ± 1.18", "unit": "µM"}]}, {"smiles": "NC(N)=S", "note": "[thiourea]", "values": [{"measurement": "IC50", "setting": "Jack Bean Urease [1]", "result": "1.94 ± 0.36", "unit": "µM"}]}]}
